Experiment: Solubility (description)
Type: physicochemical
Conditions: for solubility in organic solvent: DMSO / DMF

With `O=c1oc2cc(O)ccc2c2ccc(O)cc12` [3,8-dihydroxy-6H-benzo[c]chromen-6-one] the “solubility in organic solvent” value was “soluble in DMSO” and the solubility in water was “largely insoluble in water”.

For `O=c1oc2cc(O)ccc2c2ccccc12` [3-hydroxy-6H-benzo[c]chromen-6-one], the “solubility in organic solvent” value was “soluble in DMSO and DMF” and the solubility in water was “largely insoluble in water”.
